What was measured:
Type in all cases: biochemical
human plasma [1] = test: Human plasma anticoagulation, prothrombin time (PT)
Experimental: (§1) Fibrinogen is prepared from in-date ACD human blood as the fraction I-2 according to previous procedures and specifications. Smith, Biochem. […] Coagulation reagents ACTIN, Thromboplastin, and Human plasma are from Baxter Healthcare Corp., Dade Division, Miami, Fla. Bovine thrombin from Parke-Davis (Detroit, Mich.) is used for coagulation assays in plasma. Coagulation assay procedures are as previously described. […] A CoAScreener coagulation instrument (American LABor, Inc.) is used for all coagulation assay measurements. […] The compounds of formula I are added to human or animal plasma over a wide range of concentrations to determine prolongation effects on the APTT, PT, and TT assays. Linear extrapolations are performed to estimate the concentrations required to double the clotting time for each assay.

Bovine trypsin = molecular target: T1, Bovine trypsin (Bos taurus, UniProt P00760); test: Serine protease inhibition (Kass), trypsin
T1 construct: Bovine trypsin is purchased from Worthington Biochemicals; purchased Worthington Biochemicals, Freehold, N.J
T1 sequence (P00760 24-246): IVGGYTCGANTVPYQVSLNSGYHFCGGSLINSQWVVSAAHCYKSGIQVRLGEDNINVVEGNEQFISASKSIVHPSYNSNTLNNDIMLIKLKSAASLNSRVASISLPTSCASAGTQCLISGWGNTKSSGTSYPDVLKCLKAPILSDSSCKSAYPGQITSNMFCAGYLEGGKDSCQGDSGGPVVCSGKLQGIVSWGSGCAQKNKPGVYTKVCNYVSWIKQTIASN
Experimental: (§2) By substantially following the procedures described above for human thrombin, and using other human blood coagulation system serine proteases and using fibrinolytic system serine proteases, with the appropriate chromogenic substrates, identified below, the selectivity of the compounds of the present invention with respect to the coagulation factor serine proteases and to the fibronolytic serine proteases are evaluated as well as their substantial lack of interference with human plasma clot fibrinolysis.
(§3) Human factors X, Xa, IXa, XIa, and XIIa are purchased from Enzyme Research Laboratories, South Bend, Ind.; human urokinase from Leo Pharmaceuticals, Denmark; and recombinant activated Protein C (aPC) is prepared at Eli Lilly and Co. substantially according to U.S. Pat. No. 4,981,952 incorporated by reference herein in its entirety. Chromogenic substrates: N-Benzoyl-Ile-Glu-Gly-Arg-p-nitroanilide (for factor Xa); N-Cbz-D-Arg-Gly-Arg-p-nitroanilide (for factor IXa assay as the factor Xa substrate); Pyroglutamyl-Pro-Arg-p-nitroanilide (for Factor XIa and for aPC); H-D-Pro-Phe-Arg-p-nitroanilide (for factor XIIa); and Pyroglutamyl-Gly-Arg-p-nitroanilide (for urokinase); are purchased from KabiVitrum, Stockholm, Sweden, or from Midwest Biotech, Fishers, Ind. Bovine trypsin is purchased from Worthington Biochemicals, Freehold, N.J., and human plasma kallikrein from Kabi Vitrum, Stockholm, Sweden. Chromogenic substrate H-D-Pro-Phe-Arg-p-nitroanilide for plasma kallikrein is purchased from Kabi Vitrum, Stockholm, Sweden. N-Benzoyl-Phe-Val-Arg-p-nitroanilide, the substrate for human thrombin and for trypsin, is synthesized according to procedures described above for the compounds of the present invention, using known methods of peptide coupling from commercially available reactants, or purchaed from Midwest Biotech, Fishers, Ind.

human plasma [2] = test: Human plasma anticoagulation, thrombin time (TT)
Experimental: as §1

factor Xa = molecular target: T2, factor Xa (Homo sapiens, UniProt P00742); test: Serine protease inhibition (Kass), factor Xa
T2 construct: Human factors X, Xa, IXa, XIa, and XIIa are purchased from Enzyme Research Laboratories; purchased Enzyme Research Laboratories, South Bend, Ind
T2 sequence (P00742 235-488 limits assumed): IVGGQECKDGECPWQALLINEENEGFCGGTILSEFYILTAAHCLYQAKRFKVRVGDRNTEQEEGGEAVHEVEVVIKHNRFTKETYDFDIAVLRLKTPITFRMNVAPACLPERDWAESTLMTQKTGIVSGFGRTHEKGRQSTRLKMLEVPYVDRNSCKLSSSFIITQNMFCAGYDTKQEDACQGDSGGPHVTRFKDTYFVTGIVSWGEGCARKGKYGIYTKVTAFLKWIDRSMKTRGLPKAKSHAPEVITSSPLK
T2 sequence (P00742 41-179 partner limits assumed): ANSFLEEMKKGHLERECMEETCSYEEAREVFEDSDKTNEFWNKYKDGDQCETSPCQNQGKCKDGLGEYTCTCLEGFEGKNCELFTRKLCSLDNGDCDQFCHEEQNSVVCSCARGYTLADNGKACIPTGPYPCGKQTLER
Experimental: as §2, §3

human thrombin = human thrombin (Homo sapiens, UniProt P00734); test: Thrombin amidase inhibition (Kass), chromogenic substrate
Summary of the method: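 Purified human thrombin (8 NIH units/ml solution) mixed with compound in 50% aqueous methanol and 0.03M Tris, 0.15M NaCl, pH 7.4; chromogenic substrate (0.25 mg/ml solution) added, p-nitroaniline release followed at 405 nm. Free thrombin read from a standard curve; Kass (L/mol) is the mean over a range of compound concentrations.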

human plasma [3] = test: Human plasma anticoagulation, activated partial thromboplastin time (APTT)
Experimental: as §1

Human plasmin = molecular target: T3, Human plasmin (Homo sapiens, UniProt P00747); test: Serine protease inhibition (Kass), plasmin
T3 construct: Human plasmin is purchased from Boehringer Mannheim; purchased Boehringer Mannheim, Indianapolis, Ind
T3 sequence (P00747 581-810 limits assumed): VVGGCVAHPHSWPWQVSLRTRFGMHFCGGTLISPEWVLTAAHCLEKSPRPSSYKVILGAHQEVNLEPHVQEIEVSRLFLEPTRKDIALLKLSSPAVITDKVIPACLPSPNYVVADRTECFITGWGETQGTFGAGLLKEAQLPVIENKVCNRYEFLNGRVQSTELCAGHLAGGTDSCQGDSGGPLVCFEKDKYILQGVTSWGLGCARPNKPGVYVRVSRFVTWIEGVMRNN
T3 sequence (P00747 97-580 partner limits assumed): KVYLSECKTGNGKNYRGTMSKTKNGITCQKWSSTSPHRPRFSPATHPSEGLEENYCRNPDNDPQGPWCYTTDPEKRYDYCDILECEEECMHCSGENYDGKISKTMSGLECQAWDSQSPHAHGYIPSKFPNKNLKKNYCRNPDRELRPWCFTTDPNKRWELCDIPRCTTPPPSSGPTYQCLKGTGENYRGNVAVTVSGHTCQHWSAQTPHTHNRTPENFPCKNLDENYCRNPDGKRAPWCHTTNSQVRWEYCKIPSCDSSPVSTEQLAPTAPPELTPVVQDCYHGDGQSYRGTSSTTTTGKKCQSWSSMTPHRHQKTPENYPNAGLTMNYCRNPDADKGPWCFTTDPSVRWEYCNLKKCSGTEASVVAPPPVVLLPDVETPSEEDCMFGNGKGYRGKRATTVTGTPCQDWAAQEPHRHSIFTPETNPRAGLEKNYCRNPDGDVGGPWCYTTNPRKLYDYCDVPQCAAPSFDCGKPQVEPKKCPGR
Experimental: as §2
(§4) Human plasmin is purchased from Boehringer Mannheim, Indianapolis, Ind.; nt-PA is purchased as single chain activity reference from American Diagnostica, Greenwich, Conn.; modified-t-PA6 (mt-PA6) is prepared at Eli Lilly and Company by procedure known in the art (See, Burck, et al., J. Biol. Chem., 265, […] (1990). Plasmin chromogenic substrate H-D-Val-Leu-Lys-p-nitroanilide and tissue plasminogen activator (t-PA) substrate H-D-Ile-Pro-Arg-p-nitroanilide are purchased from Kabi Vitrum, Stockholm, Sweden.

[4] = molecular target: T4, tissue plasminogen activator (t-PA) (Homo sapiens, UniProt P00750); test: Serine protease inhibition (Kass), t-PA
T4 construct: purchased American Diagnostica, Greenwich, Conn
T4 sequence (P00750 36-562): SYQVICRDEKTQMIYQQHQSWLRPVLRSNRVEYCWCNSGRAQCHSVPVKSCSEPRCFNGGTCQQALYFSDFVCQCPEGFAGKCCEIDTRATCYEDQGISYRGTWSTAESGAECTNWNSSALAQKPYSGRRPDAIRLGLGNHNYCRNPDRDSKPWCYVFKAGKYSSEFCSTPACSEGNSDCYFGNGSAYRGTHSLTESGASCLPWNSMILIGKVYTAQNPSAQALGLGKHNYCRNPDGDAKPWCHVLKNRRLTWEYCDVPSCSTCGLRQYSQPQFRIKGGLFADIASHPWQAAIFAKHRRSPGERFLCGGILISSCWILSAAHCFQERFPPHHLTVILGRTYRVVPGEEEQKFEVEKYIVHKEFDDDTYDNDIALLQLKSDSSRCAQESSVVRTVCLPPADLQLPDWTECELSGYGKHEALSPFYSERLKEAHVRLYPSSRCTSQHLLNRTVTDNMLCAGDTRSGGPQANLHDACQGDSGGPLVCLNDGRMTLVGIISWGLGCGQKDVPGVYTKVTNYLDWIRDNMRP
Experimental: as §2, §4

SMILES: CCS(=O)(=O)N[C@@H](C(=O)N1CCC[C@H]1C(=O)N[C@H](C=O)CCCNC(=N)N)c1ccccc1.Cl [Example 64, N-(ethylsulfonyl)-D-phenylglycinyl-L-Prolinyl-L-Arginine Aldehyde Hydrochloride]
- 2 × Clotting time PT (human plasma [1]): 880 ng/mL
- Kass Trypsin (Bovine trypsin): 160 L/mol × 10^6
- 2 × Clotting time TT (human plasma [2]): 34 ng/mL
- Kass Xa (factor Xa): 45 L/mol × 10^6
- Kass Human Thrombin (human thrombin): 510 L/mol × 10^6
- 2 × Clotting time APTT (human plasma [3]): 250 ng/mL
- Kass Plasmin (Human plasmin): 14 L/mol × 10^6
- Kass t-PA [4]: 0.34 L/mol × 10^6

SMILES: CCS(=O)(=O)N[C@H](Cc1ccccc1)C(=O)N1CCC[C@@]1(C)C(=O)N[C@H](C=O)CCCNC(=N)N.Cl [Example 28, N-ethylsulfonyl-D-Phenylalanyl(α-methyl)-L-prolinyl-L-arginine aldehyde hydrochloride]
- 2 × Clotting time PT (human plasma [1]): 2,400 ng/mL
- Kass Trypsin (Bovine trypsin): 20 L/mol × 10^6
- 2 × Clotting time TT (human plasma [2]): 100 ng/mL
- Kass Xa (factor Xa): 0.11 L/mol × 10^6
- Kass Human Thrombin (human thrombin): 24 L/mol × 10^6
- 2 × Clotting time APTT (human plasma [3]): 1,600 ng/mL
- Kass Plasmin (Human plasmin): 0.31 L/mol × 10^6
- Kass t-PA [4]: 0.051 L/mol × 10^6

SMILES: CCCCC(Cc1ccccc1)(NC(=O)OCC)C(=O)N1CCC[C@H]1C(=O)N[C@H](C=O)CCCNC(=N)N (stereo partly drawn) [Example 40, N-ethoxycarbonylphenylalanyl(αn-butyl)-L-prolinyl-L-arginine aldehyde]
- 2 × Clotting time PT (human plasma [1]): 2,400 ng/mL
- Kass Trypsin (Bovine trypsin): 15 L/mol × 10^6
- 2 × Clotting time TT (human plasma [2]): 91 ng/mL
- Kass Xa (factor Xa): 0.088 L/mol × 10^6
- Kass Human Thrombin (human thrombin): 47 L/mol × 10^6
- 2 × Clotting time APTT (human plasma [3]): 3,100 ng/mL
- Kass Plasmin (Human plasmin): 0.13 L/mol × 10^6
- Kass t-PA [4]: 0.001 L/mol × 10^6

SMILES: CCOC(=O)N[C@](CC)(Cc1ccccc1)C(=O)N1CCC[C@H]1C(=O)N[C@H](C=O)CCCNC(=N)N.Cl [Example 35, N-ethoxycarbonyl-D-phenylalanyl(αethyl)-L-prolinyl-L-arginine aldehyde hydrochloride]
- 2 × Clotting time PT (human plasma [1]): 3,300 ng/mL
- Kass Trypsin (Bovine trypsin): 4.9 L/mol × 10^6
- 2 × Clotting time TT (human plasma [2]): 93 ng/mL
- Kass Xa (factor Xa): 0.036 L/mol × 10^6
- Kass Human Thrombin (human thrombin): 57 L/mol × 10^6
- 2 × Clotting time APTT (human plasma [3]): 3,200 ng/mL
- Kass Plasmin (Human plasmin): 0.12 L/mol × 10^6
- Kass t-PA [4]: 0.002 L/mol × 10^6

SMILES: COCC(=O)N[C@H](Cc1ccccc1)C(=O)N1CCC[C@H]1C(=O)N[C@H](C=O)CCCNC(=N)N.Cl [Example 68, N-(methoxyacetyl)-D-phenylalanyl-L-Prolinyl-L-Arginine Aldehyde Hydrochloride]
- 2 × Clotting time PT (human plasma [1]): 1,200 ng/mL
- Kass Trypsin (Bovine trypsin): 57 L/mol × 10^6
- 2 × Clotting time TT (human plasma [2]): 38 ng/mL
- Kass Xa (factor Xa): 0.29 L/mol × 10^6
- Kass Human Thrombin (human thrombin): 33 L/mol × 10^6
- 2 × Clotting time APTT (human plasma [3]): 440 ng/mL
- Kass Plasmin (Human plasmin): 3.8 L/mol × 10^6
- Kass t-PA [4]: 0.30 L/mol × 10^6

SMILES: Cl.Cn1c(C(=O)N[C@H](CC2CCCCC2)C(=O)N2CCC[C@H]2C(=O)N[C@H](C=O)CCCNC(=N)N)cc2ccccc21 [Example 49, N-(1-methylindolyl-2-carbonyl)-D-cyclohexylalanyl-L-Prolinyl-L-Arginine Aldehyde Hydrochlonde]
- 2 × Clotting time PT (human plasma [1]): 2,500 ng/mL
- Kass Trypsin (Bovine trypsin): 7.9 L/mol × 10^6
- 2 × Clotting time TT (human plasma [2]): 110 ng/mL
- Kass Xa (factor Xa): 4.6 L/mol × 10^6
- Kass Human Thrombin (human thrombin): 320 L/mol × 10^6
- 2 × Clotting time APTT (human plasma [3]): 1,000 ng/mL
- Kass Plasmin (Human plasmin): 25 L/mol × 10^6
- Kass t-PA [4]: 1.1 L/mol × 10^6

SMILES: C[C@@]1(C(=O)N[C@H](C=O)CCCNC(=N)N)CCCN1C(=O)[C@@H](Cc1ccccc1)NS(C)(=O)=O.Cl [Example 43, N-methylsulfonyl-D-phenylalanyl(αmethyl)-L-prolinyl-L-arginine aldehyde hydrochloride]
- 2 × Clotting time PT (human plasma [1]): 1,600 ng/mL
- Kass Trypsin (Bovine trypsin): 28 L/mol × 10^6
- 2 × Clotting time TT (human plasma [2]): 41 ng/mL
- Kass Xa (factor Xa): 0.23 L/mol × 10^6
- Kass Human Thrombin (human thrombin): 31 L/mol × 10^6
- 2 × Clotting time APTT (human plasma [3]): 1,500 ng/mL
- Kass Plasmin (Human plasmin): 0.56 L/mol × 10^6
- Kass t-PA [4]: 0.027 L/mol × 10^6

SMILES: Cl.Cn1c(C(=O)NC(C)(Cc2ccccc2)C(=O)N2CCC[C@H]2C(=O)N[C@H](C=O)CCCNC(=N)N)cc2ccccc21 (stereo partly drawn) [Example 34, N-(1-methylindolyl-2carbonyl)phenylalanyl(αmethyl)-L-prolinyl-L-argi nine aldehyde hydrochloride]
- 2 × Clotting time PT (human plasma [1]): 37,000 ng/mL
- Kass Trypsin (Bovine trypsin): 0.18 L/mol × 10^6
- 2 × Clotting time TT (human plasma [2]): 1,800 ng/mL
- Kass Xa (factor Xa): 0.002 L/mol × 10^6
- Kass Human Thrombin (human thrombin): 2.8 L/mol × 10^6
- 2 × Clotting time APTT (human plasma [3]): 21,000 ng/mL
- Kass Plasmin (Human plasmin): 0.001 L/mol × 10^6
- Kass t-PA [4]: 0.009 L/mol × 10^6

SMILES: Cl.Cn1c(C(=O)N[C@@](C)(C(=O)N2CC[C@H]2C(=O)N[C@H](C=O)CCCNC(=N)N)c2ccccc2)cc2ccccc21 [Example 23, 1-methylindole-2-carbonyl-D-(α-methyl)phenylglycine-Azt-Arg-H hydrochloride]
- 2 × Clotting time PT (human plasma [1]): 1,980 ng/mL
- Kass Trypsin (Bovine trypsin): 29 L/mol × 10^6
- 2 × Clotting time TT (human plasma [2]): 59 ng/mL
- Kass Xa (factor Xa): 0.06 L/mol × 10^6
- Kass Human Thrombin (human thrombin): 79 L/mol × 10^6
- 2 × Clotting time APTT (human plasma [3]): 1,800 ng/mL
- Kass Plasmin (Human plasmin): 0.55 L/mol × 10^6
- Kass t-PA [4]: 0.02 L/mol × 10^6

SMILES: Cl.Cl.Cn1c(C(=O)N[C@](C)(Cc2ccccc2)C(=O)N2CCC[C@H]2C(=O)N[C@H](C=O)CCCNC(=N)N)cc2ccccc21 [Example 30, N-(1-methylindolyl-2-carbonyl)-D-phenylalanyl(α-methyl)-L-prolinyl-L -arginine aldehyde dihydrochloride]
- 2 × Clotting time PT (human plasma [1]): 4,200 ng/mL
- Kass Trypsin (Bovine trypsin): 1.3 L/mol × 10^6
- 2 × Clotting time TT (human plasma [2]): 220 ng/mL
- Kass Xa (factor Xa): 0.013 L/mol × 10^6
- Kass Human Thrombin (human thrombin): 25 L/mol × 10^6
- 2 × Clotting time APTT (human plasma [3]): 2,800 ng/mL
- Kass Plasmin (Human plasmin): 0.0083 L/mol × 10^6
- Kass t-PA [4]: 0.0022 L/mol × 10^6

SMILES: CCOC(=O)NC(CC)(Cc1ccccc1)C(=O)N1CCC[C@H]1C(=O)N[C@H](C=O)CCCNC(=N)N.Cl (stereo partly drawn) [Example 36, N-ethoxycarbonylphenylalanyl(αethyl)-L-prolinyl-L-arginine aldehyde hydrochloride]
- 2 × Clotting time PT (human plasma [1]): 7,100 ng/mL
- Kass Trypsin (Bovine trypsin): 4.7 L/mol × 10^6
- 2 × Clotting time TT (human plasma [2]): 310 ng/mL
- Kass Xa (factor Xa): 0.078 L/mol × 10^6
- Kass Human Thrombin (human thrombin): 6.5 L/mol × 10^6
- 2 × Clotting time APTT (human plasma [3]): 5,000 ng/mL
- Kass Plasmin (Human plasmin): 0.058 L/mol × 10^6
- Kass t-PA [4]: 0.001 L/mol × 10^6

Source: patent US5436229A, “Bisulfite adducts of arginine aldehydes” (Eli Lilly and Company, priority 1994, dated 1995)
